Measurements as given in ChEMBL document CHEMBL6153091, “Cytotoxic Stilbenoids, Hetero- and Homodimers of Homoisoflavonoids from Prospero autumnale” (J Nat Prod, 2025).
The source made the active and inactive calls.

Legend:
Type in all cases: functional, cell-based
[1] = tested on: Hep 3B2; test: Induction of early apoptosis in human Hep3B cells at IC50 concentration incubated for 48 hrs by Annexin V-FITC/PI staining based flow cytometry
[2] = tested on: Hep 3B2; test: Induction of necrosis in human Hep3B cells at IC50 concentration incubated for 48 hrs by Annexin V-FITC/PI staining based flow cytometry
[3] = tested on: Hep 3B2; test: Induction of cell cycle arrest in human Hep3B cells assessed as increase in accumulation of cells at G2/M phase incubated for 48 hrs by flow cytometry
[4] = tested on: Hep 3B2; test: Induction of cell cycle arrest in human Hep3B cells assessed as decrease in accumulation of cells at S phase incubated for 48 hrs by flow cytometry
[5] = tested on: Hep 3B2; test: Induction of cell cycle arrest in human Hep3B cells assessed as decrease in accumulation of cells at G0/G1 phase incubated for 48 hrs by flow cytometry
[6] = tested on: LoVo; test: Induction of apoptosis in human LoVo cells at IC50 concentration incubated for 48 hrs by Annexin V-FITC/PI staining based flow cytometry
[7] = tested on: PC-3; test: Induction of apoptosis in human PC-3 cells at IC50 concentration incubated for 48 hrs by Annexin V-FITC/PI staining based flow cytometry
[8] = tested on: DU-145; test: Induction of apoptosis in human DU-145 cells at IC50 concentration incubated for 48 hrs by Annexin V-FITC/PI staining based flow cytometry
[9] = tested on: LoVo; test: Induction of necrosis in human LoVo cells at IC50 concentration incubated for 48 hrs by Annexin V-FITC/PI staining based flow cytometry
[10] = tested on: PC-3; test: Induction of necrosis in human PC-3 cells at IC50 concentration incubated for 48 hrs by Annexin V-FITC/PI staining based flow cytometry
[11] = tested on: DU-145; test: Induction of necrosis in human DU-145 cells at IC50 concentration incubated for 48 hrs by Annexin V-FITC/PI staining based flow cytometry
[12] = tested on: LoVo; test: Induction of cell cycle arrest in human LoVo cells assessed as accumulation of cells at S phase incubated for 48 hrs by flow cytometry
[13] = tested on: PC-3; test: Induction of cell cycle arrest in human PC-3 cells assessed as accumulation of cells at S phase incubated for 48 hrs by flow cytometry
[14] = tested on: DU-145; test: Induction of cell cycle arrest in human DU-145 cells assessed as accumulation of cells at S phase incubated for 48 hrs by flow cytometry
[15] = tested on: DU-145; test: Induction of cell cycle arrest in human DU-145 cells assessed as accumulation of cells at G2/M phase incubated for 48 hrs by flow cytometry
[16] = tested on: MCF7; test: Induction of apoptosis in human MCF7 cells at IC50 concentration incubated for 48 hrs by Annexin V-FITC/PI staining based flow cytometry
[17] = tested on: HCT-116; test: Induction of apoptosis in human HCT-116 cells at IC50 concentration incubated for 48 hrs by Annexin V-FITC/PI staining based flow cytometry
[18] = tested on: HepG2; test: Induction of late apoptosis in human HepG2 cells at IC50 concentration incubated for 48 hrs by Annexin V-FITC/PI staining based flow cytometry
[19] = tested on: HCT-116; test: Induction of necrosis in human HCT-116 cells at IC50 concentration incubated for 48 hrs by Annexin V-FITC/PI staining based flow cytometry
[20] = tested on: MCF7; test: Induction of necrosis in human MCF7 cells at IC50 concentration incubated for 48 hrs by Annexin V-FITC/PI staining based flow cytometry
[21] = tested on: HepG2; test: Induction of necrosis in human HepG2 cells at IC50 concentration incubated for 48 hrs by Annexin V-FITC/PI staining based flow cytometry
[22] = tested on: HCT-116; test: Induction of cell cycle arrest in human HCT-116 cells assessed as accumulation of cells at G0/G1 phase incubated for 48 hrs by flow cytometry
[23] = tested on: LoVo; test: Induction of cell cycle arrest in human LoVo cells assessed as accumulation of cells at G0/G1 phase incubated for 48 hrs by flow cytometry
[24] = tested on: MCF7; test: Induction of cell cycle arrest in human MCF7 cells assessed as accumulation of cells at G0/G1 phase incubated for 48 hrs by flow cytometry
[25] = tested on: MDA-MB-231; test: Induction of cell cycle arrest in human MDA-MB-231 cells assessed as accumulation of cells at G0/G1 phase incubated for 48 hrs by flow cytometry
[26] = tested on: HepG2; test: Induction of cell cycle arrest in human HepG2 cells assessed as decrease in accumulation of cells at S phase incubated for 48 hrs by flow cytometry
[27] = tested on: MDA-MB-231; test: Induction of apoptosis in human MDA-MB-231 cells at IC50 concentration incubated for 48 hrs by Annexin V-FITC/PI staining based flow cytometry
[28] = tested on: MDA-MB-231; test: Induction of necrosis in human MDA-MB-231 cells at IC50 concentration incubated for 48 hrs by Annexin V-FITC/PI staining based flow cytometry
[29] = tested on: MDA-MB-231; test: Induction of cell cycle arrest in human MDA-MB-231 cells assessed as accumulation of cells at S phase incubated for 48 hrs by flow cytometry
[30] = tested on: LoVo; test: Induction of cell cycle arrest in human LoVo cells assessed as decrease in accumulation of cells at G2/M phase incubated for 48 hrs by flow cytometry
[31] = tested on: MDA-MB-231; test: Induction of cell cycle arrest in human MDA-MB-231 cells assessed as decrease in accumulation of cells at G2/M phase incubated for 48 hrs by flow cytometry

Measured: Activity

O=C1/C(=C/c2ccc(O)cc2)COc2cc(O)cc(O)c21
active: [1] | [2] | [3] | [4] | [5]

COc1cc(/C=C/c2ccc(O)cc2)cc(O)c1C
active: [6] | [7] | [8] | [9] | [10] | [11] | [12] | [13] | [14] | [15]

COc1ccc([C@H]2c3c(/C=C/c4ccc(O)cc4)cc(OC)c(C)c3O[C@@H]3Oc4cc(O)cc(O)c4C(=O)[C@@H]32)cc1
active: [16] | [17] | [6] | [18] | [19] | [9] | [20] | [21] | [22] | [23] | [24] | [25] | [26]

COc1cc(O)cc(/C=C/c2ccc(O)cc2)c1
active: [6] | [27] | [9] | [28] | [12] | [29] | [30] | [31]
